Where a name gives a salt, the structure may show the parent alone.
Legend:
Acetylcholinesterase = target: T1, Acetylcholinesterase (Rattus norvegicus, UniProt P37136); assay: cholinesterase inhibitory activity using (acetyl-[^3 H])-acetylcholine, S1 fraction of rat cerebral cortex homogenate; type: biochemical, male Wistar rat; settings: 30 min incubation
T1 construct: Using the S1 fraction of a male Wistar rat cerebral cortex homogenate as a source of cholinesterase; from tissue; host or cells: male Wistar rat cerebral cortex homogenate, S1 fraction
T1 sequence (P37136 32-614): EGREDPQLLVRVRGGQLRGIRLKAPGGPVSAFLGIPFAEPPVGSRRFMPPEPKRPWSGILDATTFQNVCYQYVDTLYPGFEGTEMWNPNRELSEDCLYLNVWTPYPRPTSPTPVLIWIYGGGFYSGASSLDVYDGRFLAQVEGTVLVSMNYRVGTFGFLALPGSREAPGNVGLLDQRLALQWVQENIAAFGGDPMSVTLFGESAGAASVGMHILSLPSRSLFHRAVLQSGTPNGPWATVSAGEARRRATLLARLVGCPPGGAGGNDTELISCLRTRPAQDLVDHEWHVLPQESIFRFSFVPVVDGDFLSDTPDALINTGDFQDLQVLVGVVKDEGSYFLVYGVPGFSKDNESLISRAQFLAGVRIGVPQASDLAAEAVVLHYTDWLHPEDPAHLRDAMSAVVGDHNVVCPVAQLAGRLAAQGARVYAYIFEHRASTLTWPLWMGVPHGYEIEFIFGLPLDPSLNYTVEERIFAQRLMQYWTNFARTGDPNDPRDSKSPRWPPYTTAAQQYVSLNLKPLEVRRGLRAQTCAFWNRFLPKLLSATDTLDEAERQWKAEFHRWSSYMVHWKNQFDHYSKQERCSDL
Method: The cholinesterase inhibitory activity of the compound of the present invention was tested, using (acetyl-[^3 H])-acetylcholine. Using the S1 fraction of a male Wistar rat cerebral cortex homogenate as a source of cholinesterase, (acetyl-[^3 H])-acetylcholine, as a substrate, and the test compound, as a sample, were incubated for 30 minutes. After the reaction was terminated, a toluene scintillator was added and the reaction mixture was shaken to migrate the [^3 H]-acetic acid resulting from the reaction to the toluene layer, where radioactivity was counted using a liquid scintillation counter to determine the cholinesterase inhibitory activity.
The sample's cholinesterase inhibitory activity was expressed by 50% inhibitory concentration (IC50).

[1] = test system: [3H]-serotonin (5-HT) uptake; assay: monoamine uptake inhibition, [3H]-serotonin (5-HT), crude synaptosomal preparations of cerebral cortex and hippocampus; type: biochemical; settings: [^3 H]-HT 10 nM; 37° C; rat synaptosomes; read-out: Monoamine Reuptake Inhibitory Activity IC50, 5-HT
Method: (§1) Effects of the compound of this invention on monoamine uptake were investigated using [^3 H]-norepinephirine(NE) and [3H]-serotonin (5-HT). Rats were sacrificed by decapitation. The cerebral cortex and hippocampus were removed and homogenized in 10-15 volumes (W/V) of an ice-cold medium containing 0.32M sucrose. Crude synaptosomal preparations (P2) were isolated after differential centrifugation at 1000×g for 10 min and 20,000×g for 30 min at 4° C. Synaptosomal membranes were suspended in Krebs-Ringer bicarbonate (KRB) solution (116 mM NaCl, 4.8 mM KCl, 1.3 mM CaCl2, 1.2 mM MgSO4, 1.2 mM NaH2 PO4, 25 mM NaHCO3, 0.1 mM EDTA-2Na, 11.1 mM D-glucose, 0.11 mM L-ascorbic acid, 0.01 mM pargyline). Synaptosomal membrane suspension (900 μl) was preincubated with the test compound dissolved in DMSO solution at 37° C. for 5 min. The reaction was initiated by addition of 100 μl of [^3 H]-NE (11 nM in final concentration) or [^3 H]-HT (10 nM in final concentration). Five minutes later, the reaction was stopped by the addition of 4 ml of ice-cold KRB and the reaction mixture was filtered through Whatman CF/B. Filters were washed twice with 4 ml of KRB and the radioactivity bound was counted with liquid scintillant. Imipramine was used as positive control.

[2] = test system: [^3 H]-norepinephirine(NE) uptake; assay: monoamine uptake inhibition, [^3 H]-norepinephirine (NE), crude synaptosomal preparations of cerebral cortex and hippocampus; type: biochemical; settings: [^3 H]-NE 11 nM; 37° C; rat synaptosomes; read-out: Monoamine Reuptake Inhibitory Activity IC50, NE
Method: as §1

| Structure (SMILES) | IC50 (Acetylcholinesterase) [nM] | IC50 [1] [nM] | IC50 [2] [nM] |
| --- | --- | --- | --- |
| CN1CC2CCCc3c(C(=O)CCC4CCN(Cc5ccccc5)CC4)ccc1c32 (stereo not drawn) [16-1] | 154 | – | – |
| O=C(CCN1CCN(Cc2ccccc2)CC1)c1cc2c3c(c1)CCN3C(=O)CC2 [17-1] | 3 | – | – |
| O=C(CCN1CCN(Cc2ccccc2)CC1)c1cc2c3c(c1)CC(=O)N3CCC2 [17-2] | 7.6 | – | – |
| O=C(CCN1CCN(Cc2ccccc2)CC1)c1cc2c3c(c1)CC(=O)N3CCCC2 [17-3] | 17.2 | – | – |
| CC1CC(=O)N2CCc3cc(C(=O)CCN4CCN(Cc5ccccc5)CC4)cc1c32 (stereo not drawn) [17-4] | 9.5 | – | – |
| O=C(CCN1CCN(Cc2ccccc2)CC1)c1cc2c3c(c1)CCC(=O)N3CCC2 [17-6] | 15.1 | – | – |
| O=CN1Cc2cc(C(=O)CCN3CCN(Cc4ccccc4)CC3)ccc2Cc2ccccc21 [17-7] | 33 | – | – |
| O=CN1Cc2cc(C(=O)CCN3CCN(Cc4ccccc4)CC3)ccc2Oc2ccccc21 [17-8] | 47 | – | – |
| O=CN1Cc2cc(C(=O)CCN3CCN(Cc4ccccc4)CC3)ccc2CCc2ccccc21 [17-10] | 96.8 | – | – |
| O=C(CCN1CCN(Cc2ccccc2)CC1)c1ccc2c(c1)C1CCCCC1N2 (stereo not drawn) [19-1] | – | 1670 | 328 |
| CCC(=O)N1CC2CCCc3c(C(=O)CCC4CCN(Cc5ccccc5)CC4)ccc1c32 (stereo not drawn) [20-1] | 182 | – | – |
| Cc1cccc(CN2CCN(CCC(=O)c3cc4c5c(c3)CC(=O)N5CCC4)CC2)c1 [30-1] | 28.7 | 95.6 | 4600 |
| O=C(CCN1CCN(Cc2ccccc2Cl)CC1)c1cc2c3c(c1)CC(=O)N3CCC2 [30-3] | 10.9 | – | – |
| O=C(CCN1CCN(Cc2cccc(Cl)c2)CC1)c1cc2c3c(c1)CC(=O)N3CCC2 [30-4] | 43 | – | – |
| CCc1ccccc1CN1CCN(CCC(=O)c2cc3c4c(c2)CC(=O)N4CCC3)CC1 [30-6] | – | 86.3 | 5960 |
| Cc1ccc(CN2CCN(CCC(=O)c3cc4c5c(c3)CC(=O)N5CCC4)CC2)cc1C [30-8] | – | 60.7 | 643 |
| O=C(CCN1CCN(Cc2ccccc2F)CC1)c1cc2c3c(c1)CC(=O)N3CCC2 [30-10] | 18.9 | – | – |
| O=C(CCN1CCN(Cc2cccc(F)c2)CC1)c1cc2c3c(c1)CC(=O)N3CCC2 [30-11] | 16.9 | – | – |
| O=C(CCN1CCN(Cc2ccc(F)cc2)CC1)c1cc2c3c(c1)CC(=O)N3CCC2 [30-12] | 23.9 | – | – |
| COc1ccccc1CN1CCN(CCC(=O)c2cc3c4c(c2)CC(=O)N4CCC3)CC1 [30-13] | 130 | – | – |
| O=C(CCN1CCN(Cc2ccccc2O)CC1)c1cc2c3c(c1)CC(=O)N3CCC2 [30-16] | 5.8 | – | – |
| Cc1ccccc1CN1CCN(CCC(=O)c2cc3c4c(c2)CCN4C(=O)CC3)CC1 [30-18] | 24.9 | – | – |
| Cc1cccc(CN2CCN(CCC(=O)c3cc4c5c(c3)CCN5C(=O)CC4)CC2)c1 [30-19] | 11.9 | 66 | 2820 |

| Structure (SMILES) | IC50 (Acetylcholinesterase) [nM] | IC50 [1] [nM] | IC50 [2] [nM] |
| --- | --- | --- | --- |
| O=C(CCN1CCN(Cc2ccccc2Cl)CC1)c1cc2c3c(c1)CCN3C(=O)CC2 [30-21] | 3.6 | 88.2 | 1540 |
| O=C(CCN1CCN(Cc2cccc(Cl)c2)CC1)c1cc2c3c(c1)CCN3C(=O)CC2 [30-22] | 6.2 | 60.1 | 795 |
| O=C(CCN1CCN(Cc2ccccc2F)CC1)c1cc2c3c(c1)CCN3C(=O)CC2 [30-24] | 1.5 | – | – |
| O=C(CCN1CCN(Cc2cccc(F)c2)CC1)c1cc2c3c(c1)CCN3C(=O)CC2 [30-25] | 0.098 | 11.7 | 1310 |
| O=C(CCN1CCN(Cc2ccc(F)cc2)CC1)c1cc2c3c(c1)CCN3C(=O)CC2 [30-26] | 4.4 | – | – |
| Cc1ccc(C)c(CN2CCN(CCC(=O)c3cc4c5c(c3)CCN5C(=O)CC4)CC2)c1 [30-27] | 188 | 79.8 | 559 |
| Cc1ccc(CN2CCN(CCC(=O)c3cc4c5c(c3)CCN5C(=O)CC4)CC2)cc1C [30-28] | – | 61.5 | 2810 |
| O=C(CCN1CCN(Cc2cccc([N+](=O)[O-])c2)CC1)c1cc2c3c(c1)CCN3C(=O)CC2 [30-29] | 29.3 | – | – |
| COc1ccccc1CN1CCN(CCC(=O)c2cc3c4c(c2)CCN4C(=O)CC3)CC1 [30-32] | 91.1 | – | – |
| O=C(CCC1CCN(Cc2ccccc2)CC1)c1cc2c3c(c1)CC(=O)N3CCC2 [30-34] | 0.5 | – | – |
| O=C(CCN1CCN(Cc2cccc([N+](=O)[O-])c2)CC1)c1cc2c3c(c1)CC(=O)N3CCC2 [30-35] | 67.9 | – | – |
| O=C(CCN1CCN(Cc2ccc([N+](=O)[O-])cc2)CC1)c1cc2c3c(c1)CC(=O)N3CCC2 [30-36] | – | 46.8 | 7480 |
| O=C(CCC1CCN(Cc2ccccc2)CC1)c1cc2c3c(c1)CCN3C(=O)CC2 [30-38] | 0.18 | – | – |
| O=C(CCC1CCN(Cc2ccccc2F)CC1)c1cc2c3c(c1)CCN3C(=O)CC2 [30-39] | 0.5 | – | – |
| O=C(CCC1CCN(Cc2cccc(F)c2)CC1)c1cc2c3c(c1)CCN3C(=O)CC2 [30-40] | 0.092 | – | – |
| O=C(CCC1CCN(Cc2ccc(F)cc2)CC1)c1cc2c3c(c1)CCN3C(=O)CC2 [30-41] | 0.47 | – | – |
| O=C(CCC1CCN(Cc2ccccc2Cl)CC1)c1cc2c3c(c1)CCN3C(=O)CC2 [30-42] | 0.54 | – | – |
| O=C(CCC1CCN(Cc2cccc(Cl)c2)CC1)c1cc2c3c(c1)CCN3C(=O)CC2 [30-43] | 0.065 | – | – |
| O=C(CCC1CCN(Cc2ccc(Cl)cc2)CC1)c1cc2c3c(c1)CCN3C(=O)CC2 [30-44] | 59.9 | – | – |
| Cc1ccccc1CN1CCC(CCC(=O)c2cc3c4c(c2)CCN4C(=O)CC3)CC1 [30-45] | 0.304 | – | – |
| Cc1cccc(CN2CCC(CCC(=O)c3cc4c5c(c3)CCN5C(=O)CC4)CC2)c1 [30-46] | 0.2 | – | – |
| Cc1ccc(CN2CCC(CCC(=O)c3cc4c5c(c3)CCN5C(=O)CC4)CC2)cc1 [30-47] | 19.5 | – | – |
| COc1ccccc1CN1CCC(CCC(=O)c2cc3c4c(c2)CCN4C(=O)CC3)CC1 [30-48] | 17.1 | – | – |

| Structure (SMILES) | IC50 (Acetylcholinesterase) [nM] | IC50 [1] [nM] | IC50 [2] [nM] |
| --- | --- | --- | --- |
| O=C(CCC1CCN(Cc2cccc([N+](=O)[O-])c2)CC1)c1cc2c3c(c1)CCN3C(=O)CC2 [30-52] | 0.36 | – | – |
| O=C(CCC1CCN(Cc2ccc([N+](=O)[O-])cc2)CC1)c1cc2c3c(c1)CCN3C(=O)CC2 [30-53] | 25.4 | – | – |
| Cc1ccc(CN2CCC(CCC(=O)c3cc4c5c(c3)CCN5C(=O)CC4)CC2)c(C)c1 [30-54] | 60.9 | – | – |
| Cc1ccc(C)c(CN2CCC(CCC(=O)c3cc4c5c(c3)CCN5C(=O)CC4)CC2)c1 [30-56] | 18.3 | – | – |
| O=C(CCC1CCN(Cc2ccccc2O)CC1)c1cc2c3c(c1)CCN3C(=O)CC2 [30-58] | 0.12 | – | – |
| O=C(CCC1CCN(Cc2cccc(O)c2)CC1)c1cc2c3c(c1)CCN3C(=O)CC2 [30-59] | 1.12 | – | – |
| O=C(CCC1CCN(Cc2ccc(O)cc2)CC1)c1cc2c3c(c1)CCN3C(=O)CC2 [30-60] | 0.078 | – | – |
| N#Cc1ccccc1CN1CCC(CCC(=O)c2cc3c4c(c2)CCN4C(=O)CC3)CC1 [30-61] | 15.6 | – | – |
| O=C(CCN1CCN(Cc2ccc3c(c2)OCO3)CC1)c1cc2c3c(c1)CC(=O)N3CCC2 [31-1] | – | 46.3 | 6180 |
| O=C(CCN1CCC(Cc2ccccc2)CC1)c1cc2c3c(c1)CC(=O)N3CCC2 [31-2] | – | 8.79 | 73.8 |
| O=CN1Cc2ccccc2-c2ccc(C(=O)CCN3CCC(Cc4ccccc4)CC3)cc2C1 [31-11] | – | 69.5 | 515 |
| O=C(CCN1CCN(Cc2ccccc2)CC1)c1ccc2c(c1)CNc1ccccc1C2 [32-2] | 115 | – | – |
| O=C(CCN1CCN(Cc2ccccc2)CC1)c1ccc2c(c1)CNc1ccccc1O2 [32-3] | 59 | – | – |
| O=C(CCN1CCN(Cc2ccccc2)CC1)c1ccc2c(c1)CN(Cc1ccccc1)Cc1ccccc1-2 [34-1] | 39.3 | – | – |
| COc1ccc(CN2Cc3ccccc3-c3ccc(C(=O)CCN4CCN(Cc5ccccc5)CC4)cc3C2)cc1 [34-2] | 20 | – | – |
| CC(=O)N1Cc2ccccc2-c2ccc(C(=O)CCN3CCN(Cc4ccccc4)CC3)cc2C1 [34-3] | 171 | – | – |
| O=C(CCN1CCN(Cc2ccccc2)CC1)c1ccc2c(c1)CN(C(=O)c1ccccc1)Cc1ccccc1-2 [34-4] | – | 969 | 456 |
| COc1ccc(C(=O)N2Cc3ccccc3-c3ccc(C(=O)CCN4CCN(Cc5ccccc5)CC4)cc3C2)cc1 [34-5] | 31.6 | – | – |
| O=C(CCN1CCC(Cc2ccccc2)CC1)c1ccc2c(c1)CN(C(=O)c1ccccc1)Cc1ccccc1-2 [34-8] | – | 363 | 197 |
| O=C(CCC1CCN(Cc2ccccc2)CC1)c1ccc2c3c(cccc13)CN(Cc1ccccc1)C2 [37-2] | 184 | – | – |
| CN1c2ccc(C(=O)CCC3CCN(Cc4ccccc4)CC3)cc2C2CCCCC21 (stereo not drawn) [37-4] | 136 | – | – |
| CN(C)CCCN1c2ccccc2CCc2ccccc21 [Imipramine, reference compound] | – | 63 | 1120 |
| O=C(CCN1CCN(Cc2ccccc2)CC1)c1ccc2c3c1CCCC3CN2 (stereo not drawn) [compound 2, 1-(1,2,2a,3,4,5-Hexahydrobenz[cd]indol-6-yl)-3-[1-(phenylmethyl)piperazin-4-yl]-1-propanone trihydrochloride] | – | 594 | 420 |
